Patent publication US20050288347A1, “Certain triazole-based compounds, compositions, and uses thereof” (priority 2004, published 2005)
“Also recorded” adds a separate entry of the source.

target: protein kinase; assay: HTS ATP-utilizing enzyme assay, off-chip mobility-shift format (Caliper HTS 250); type: biochemical, human; conditions: kinase(s) for which the compound exhibits protein kinase inhibitory activity; test compound 10 μM; active = greater than three-sigma from the mean activity of inactive compounds
Outline: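 Single-point screen at 10 μM compound in HEPES pH 7.5 buffer with Triton X-100 and BSA, 2.5 h at 20–22 °C. Substrate-to-phosphopeptide ratio measured by off-chip microfluidic mobility shift; EDTA wells as 100% and DMSO wells as 0% control, hits called at three-sigma limits.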

Kinase	SMILES
FYN	Cc1ccc(-n2c(SCC(=O)N3CCCCC3)nnc2-c2ccncc2)cc1
PDGFRR-α	O=C(CSc1nnc(-c2ccc([N+](=O)[O-])cc2)n1CC1CCCO1)N1CCOCC1 (centres unmarked)
GSK3-α and GSK3-β and PAK2	NC(=O)c1c(NC(=O)CSc2nnc(-c3ccccc3)n2Cc2ccco2)sc2c1CCC2
FYN	COc1ccc(NCc2nnc(SCC#N)n2-c2ccccc2OC)cc1
PDGFRR-α and PAK2	CN(C)CCCn1c(SCC(=O)NCc2ccco2)nnc1-c1ccncc1
PDGFRR-α and FYN	CCOc1ccc(NCc2nnc(SCC#N)n2-c2cccc(Cl)c2)cc1
LYNA	Cc1cc(C)nc(SCc2nnc(SCC#N)n2-c2cccc(Cl)c2)n1
MAPKAPK-2	COc1ccc(-n2c(SCC(N)=O)nnc2-c2ccc(S(=O)(=O)N3CCCC3)cc2)cc1
MAPKAPK-2 and CDK1	COc1ccc(-n2c(COc3cccc4ccccc34)nnc2SCC#N)cc1
AURORA-A	COc1ccc(-n2c(SCC#N)nnc2-c2cccnc2)cc1
AURORA-A	COc1ccc(-n2c(SCC(=O)O)nnc2-c2cccnc2)cc1
FYN and PDGFRR-α and FLT-3	COc1cc([N+](=O)[O-])ccc1NC(=O)CSc1nnc(-c2ccncc2)n1Cc1ccco1
FYN	C=CCn1c(SCC(=O)Nc2cccc([N+](=O)[O-])c2)nnc1-c1ccncc1
MSK1	N#CCSc1nnc(CNc2ccc(Cl)cc2)n1Cc1ccccc1
GSK3-β and AKT1 and GSK3-α	NC(=O)CSc1nnc(CNc2ccc(F)cc2)n1Cc1ccccc1
CDK1 and CHEK2	N#CCSc1nnc(COc2cccc3ccccc23)n1Cc1ccccc1
FYN	CCn1c(SCC(=O)N2CCCC(C)C2)nnc1-c1ccc(S(=O)(=O)N2CCN(C)CC2)cc1 (centres unmarked)
FYN	CCn1c(SCC(=O)Nc2nc(C)cs2)nnc1-c1ccc(S(=O)(=O)N2CCN(C)CC2)cc1
AURORA-A	CCn1c(SCC#N)nnc1-c1ccc(S(=O)(=O)N2CCOCC2)cc1
CDK1	CCn1c(SCC(=O)O)nnc1-c1ccc(S(=O)(=O)N2CCOCC2)cc1
CDK2 and CDK1 and CHEK2	CCn1c(CNc2cccc(C(F)(F)F)c2)nnc1SCC#N
FYN	CCn1c(COc2cccc3ccccc23)nnc1SCC(=O)NCC1CCCO1 (centres unmarked)

Kinase	SMILES
AURORA-A	CCn1c(COc2cccc3ccccc23)nnc1SCC#N
FYN	CCn1c(COc2cccc(C)c2)nnc1SCC(=O)N1CCCCC1
FYN	CCn1c(SCC(=O)NCc2ccco2)nnc1-c1ccccc1
AURORA-A	Cn1c(SCC(=O)N2CCCC2)nnc1-c1ccc(S(=O)(=O)N2CCOCC2)cc1
FYN	Cn1c(CNc2nc(-c3ccccc3)cs2)nnc1SCC(N)=O
FYN	Cn1c(COc2ccc3ccccc3c2)nnc1SCC(N)=O
AURORA-A	NC(=O)CSc1nnc(-c2ccc(NS(=O)(=O)c3ccccc3)cc2)n1-c1ccccc1
MAPKAPK-2	NC(=O)CSc1nnc(COc2cccc3cccnc23)n1-c1ccccc1
FYN and PRAK	CC(C)N(C(=O)CSc1nnc(-c2ccccc2N)n1C)C(C)C
AURORA-A	COc1ccccc1-n1c(SCC#N)nnc1-c1ccccc1O
GSK3-β; also recorded: AURORA-A	O=C(CSc1nnc(-c2ccc(O)cc2)n1CC1CCCO1)Nc1nc2c(s1)CCCC2 (centres unmarked)
MSK1	C=C(C)Cn1c(SCC(=O)O)nnc1-c1ccc(OC)cc1
PDK1 and SYK and INSR	COc1ccc(-c2nnc(SCC(=O)N(C)C)n2-c2ccccc2)cc1
PRAK and CHEK2	COc1ccc(-c2nnc(SCC(=O)Nc3ccccc3)n2-c2ccccc2)cc1
INSR and PRAK	COc1ccc(-c2nnc(SCC(=O)N3CCOCC3)n2-c2ccccc2)cc1
SYK and PRAK	CNC(=O)CSc1nnc(-c2ccc(OC)cc2)n1-c1ccccc1
FYN	Cn1c(Cn2cnc3ccccc32)nnc1SCC(=O)Nc1ccccc1Cl
CDK1	COc1ccc(-n2c(CNc3cc(C(F)(F)F)ccc3Cl)nnc2SCC#N)cc1
PDGFRR-α and FYN	Cc1ccc(NCc2nnc(SCC(=O)NCc3ccco3)n2CC2CCCO2)c(C)c1 (centres unmarked)
PDGFRR-α	Cc1ccc(NCc2nnc(SCC(N)=O)n2Cc2ccco2)c(C)c1
AKT1	Cc1ccc(NCc2nnc(SCC#N)n2-c2ccccc2)c(C)c1
AURORA-A	Cc1ccc(NCc2nnc(SCC#N)n2-c2ccccc2)cc1Cl

Kinase	SMILES
CDK2-cyclinA	CCn1c(CNc2cccc(Cl)c2)nnc1SCC#N
AURORA-A	Cn1c(CNc2cccc(Cl)c2)nnc1SCC#N
FYN	CCn1c(COc2ccc(Cl)c(C)c2)nnc1SCC(=O)N1CCCCC1
AURORA-A	CCn1c(COc2ccc(Cl)c(C)c2)nnc1SCC#N
LYNA and DYRK2	CCn1c(CNc2ccc(Cl)cc2)nnc1SCC#N
FYN	CCOc1ccc(NCc2nnc(SCC#N)n2-c2ccc(C)cc2)cc1
FYN and PDGFRR-α and FLT-3	CCOc1ccc(NCc2nnc(SCC(N)=O)n2-c2ccccc2)cc1
PDGFRR-α	COc1ccc(OCc2nnc(SC(C)C(=O)Nc3ccccc3C)n2C)cc1 (centres unmarked)
FYN	COc1ccc(NCc2nnc(SCC(=O)O)n2-c2ccc(C)cc2)cc1
FYN and PDGFRR-α and AURORA-A	COc1ccc(NCc2nnc(SCC#N)n2-c2ccc(C)cc2)cc1
MAPKAPK-2 and CDK1 and CDK5	N#CCSc1nnc(COc2cccc3ccccc23)n1-c1ccccc1
PDGFRR-α and CDK1	Cc1ccc(NCc2nnc(SCC#N)n2-c2ccc(Cl)cc2)cc1
AURORA-A	O=C(O)CSc1nnc(-c2ccco2)n1CC1CCCO1 (centres unmarked)
FYN	CCn1c(Cc2ccccc2)nnc1SCC(=O)N1CCCc2ccccc21
GSK3-β; also recorded: GSK3-α	Cc1nc(NC(=O)CSc2nnc(C3CC3)n2C)sc1C
CDK2-cyclinE	Cn1c(SCC(=O)Nc2nc3c(s2)CCCC3)nnc1C1CC1
GSK3-α	O=C(O)c1ccc(-n2c(S)nnc2-c2cc(C3CC3)n[nH]2)cc1
GSK3-α; also recorded: GSK3-β	COc1ccc(-n2c(S)nnc2CNc2cccc(C(F)(F)F)c2)cc1
PDGFRR-α and FYN	CCN(CC)S(=O)(=O)c1ccc(-c2nnc(SCC(=O)N3C(C)CCCC3C)n2CC)cc1 (centres unmarked)
GSK3-α	FC(F)(F)c1cccc(NCc2nnc(S)n2-c2ccccc2)c1
INSR and SYK	COc1ccc(-c2nnc(SCC(=O)Nc3ccccc3Cl)n2-c2ccccc2)cc1
PRAK and CHEK2 and PKA	COc1ccc(-c2nnc(SCC(=O)Nc3cccc(NC(=O)c4ccco4)c3)n2-c2ccccc2)cc1

Kinase	SMILES
PRAK and CHEK2 and PKA	COc1ccc(-c2nnc(SCC(=O)Nc3cccc(NC(=O)C4CCCO4)c3)n2-c2ccccc2)cc1 (centres unmarked)
FYN	Cc1nnc(SCC(=O)Nc2cccc(N)c2)n1-c1ccccc1
PRAK and CHEK2 and AURORA-A	COc1ccc(-c2nnc(SCC(=O)Nc3cccc(Cl)c3)n2-c2ccccc2)cc1
DYRK2; also recorded: CDK2-cyclinE	COc1ccc(NCc2nnc(SCC(=O)Nc3sc4c(c3C#N)CCCC4)n2C)cc1
CHEK2	Cn1c(SCC(=O)NCc2ccco2)nnc1-c1ccc(NC(=O)c2ccccc2)cc1
CHEK2 and AKT1	COc1ccc(-n2c(SCC#N)nnc2-c2ccc(NC(=O)c3ccccc3)cc2)cc1
CDK2-cyclinA and CDK1 and CDK2-cyclinE	COc1ccc(-n2c(SCC#N)nnc2-c2ccc(NS(=O)(=O)c3ccc(C)cc3)cc2)cc1
FYN	COCCn1c(SCC(=O)Nc2ccc(F)cc2)nnc1-c1ccncc1
GSK3-β; also recorded: AURORA-A	Cc1nc(NC(=O)CSc2nnc(-c3cccnc3)n2Cc2ccco2)sc1C
PDGFRR-α	CCc1nnc(NC(=O)CSc2nnc(-c3ccc(NS(=O)(=O)c4ccc(C)cc4)cc3)n2C)s1
GSK3-β; also recorded: GSK3-α	CCc1nnc(NC(=O)CSc2nnc(-c3ccc(O)cc3)n2C)s1
AURORA-A	Cn1c(CNc2cccc(C(F)(F)F)c2)nnc1SCC(=O)Nc1ccc2c(c1)OCO2
AKT3	COc1ccc(-c2nnc(SCC(=O)NCC3CCCCC3)n2-c2ccccc2)cc1
FYN	COCCCn1c(C)nnc1SCC(=O)NCc1ccco1
FYN	O=C(CSc1nnc(-c2ccncc2)n1Cc1ccco1)NCc1ccco1
PDGFRR-α and PKA	Cn1c(CNc2nc(-c3ccccc3)cs2)nnc1SCC(=O)NCc1ccccc1
AURORA-A	COc1cccc(-n2c(SCC(=O)NC(C)(C)C)nnc2-c2cccnc2)c1
FYN and GSK3-α	CCOC(=O)CN(C(=O)CSc1nnc(-c2ccncc2)n1Cc1ccco1)c1cccc([N+](=O)[O-])c1
CSK	CCOC(=O)CSc1nnc(CSc2nc3ccccc3s2)n1C
FYN	CCOC(=O)c1ccc(NC(=O)CSc2nnc(COc3ccc(OC)cc3)n2CC)cc1
GSK3-β; also recorded: GSK3-α	COCCn1c(SCC(=O)Nc2ccccc2C(=O)OC)nnc1-c1ccncc1

SMILES	Kinase
Cn1c(COc2ccc([N+](=O)[O-])cc2)nnc1SCC(=O)Nc1sc2c(c1C(N)=O)CCCC2	GSK3-β; also recorded: GSK3-α; also recorded: AURORA-A
NC(=O)c1c(NC(=O)CSc2nnc(-c3ccncc3)n2CC2CCCO2)sc2c1CCCC2 (centres unmarked)	GSK3-β; also recorded: GSK3-α; also recorded: AURORA-A
Cc1ccc(C)c(-n2c(SCC(N)=O)nnc2-c2ccc(O)cc2)c1	GSK3-β; also recorded: GSK3-α; also recorded: CDK2-cyclinE
N#CCSc1nnc(-c2ccc(O)cc2)n1Cc1ccco1	GSK3-β; also recorded: GSK3-α; also recorded: AURORA-A
Cn1c(Cn2nnc3ccccc32)nnc1SCC(=O)Nc1nccs1	GSK3-β; also recorded: GSK3-α; also recorded: CDK2-cyclinE
COc1ccccc1OCc1nnc(S)n1Cc1ccco1	AURORA-A; also recorded: GSK3-β; also recorded: GSK3-α
Cc1ccc(NCc2nnc(S)n2-c2ccccc2)cc1Cl	GSK3-β; also recorded: GSK3-α; also recorded: AURORA-A
Cn1c(SCC(=O)Nc2cccc(NC(=O)c3ccco3)c2)nnc1-c1ccncc1	GSK3-β; also recorded: AURORA-A; also recorded: GSK3-α
